According to US20080103205A1, “Pesticidal compositions and methods of use” (priority 2006, published 2008):
Values joined by “and” are separate entries in the source; they are usually repeats but may differ in a detail not shown here. Identical values can stand only once. Like-named read-outs stand apart in the source and are kept apart here.

Assays:
Caenorhabditis elegans = assay: Toxicity test, adult Caenorhabditis elegans, 96 well micro plate; assay type: in vivo
Experimental: Methodology: Toxicity tests were conducted using J2 juveniles of Meloidogyne incognita adult Caenorhabditis elegans collected from nematode-infested tomato plant roots and culture Petri plates, respectively. Test concentrations of 50, 100, 200, 300, or 400 ppm were prepared in 0.2% dimethylsulfoxide (DMSO) in tap water. Aliquots (300 microliters (ul)) were applied to a 96 well micro plate and a 20 ul aqueous solution containing nematodes was added. The number of nematodes in 20 ul ranged from 17 to 30. Micro plates were sealed with Parafilm™ and incubated at room temperature. Similar tests conducted with 0.2% DMSO in tap water served as controls. Nematode mortality was checked at 24, 48, 72, 120, and 168 hr after incubation. Nematodes that were motionless for 30 sec when observed under a stereomicroscope were considered paralyzed and included in mortality counts. Each concentration was replicated five times and mean percent mortality was calculated after correcting for control mortality using Abbott's formula.
Data Analysis: Mortality data were analyzed using PROC PROBIT (SAS) program and LC50 values were estimated.

Drosophila melanogaster = assay: Toxicity against adult Drosophila melanogaster, sugar solution feeding; assay type: in vivo
Experimental: Toxicity tests were conducted using mixed sex adults of D. melanogaster maintained on artificial diet in the department of entomology, Virginia Tech. Test concentrations of 6.25, 12.5, 25, 50 or 100 ppm were prepared in 0.2% dimethyl sulfoxide (DMSO) for DIDS, 9-AC, NPPB, and IAA-94. The above final concentrations were obtained after mixing them in 10 ml of 10% sugar solution. Similar preparations with 0.2% DMSO alone served as controls. One end of a cotton wick was dipped in 0.5 ml of sugar solution and placed on the glass vial containing 10 adult flies of mixed sex. Each concentration of test chemical had 5 replications. Mortality counts of flies were taken 24, 48, and 72 hrs after treatment. Insects without movement upon probing were considered dead. LC50 values and confidence intervals for each chemical were estimated using POLO PLUS software program. The data provided in Tables 3-A and 3-B below confirm that AT blockers are toxic to insects in acute exposures.

[1] = system: European corn borer (Ostrinia nubilalis); assay: Diet surface test on European corn borer larvae (2nd instar); assay type: in vivo; conditions: for mortality at 6.25 ppm / mortality at 12.5 ppm / mortality at 25 ppm / mortality at 50 ppm: Ostrinia nubilalis, read-out: % Mortality
Experimental: Concentrations of 6.25, 12.5, 25, or 50 ppm AT blocker were prepared in 95% ethyl alcohol (EtOH). 95% EtOH alone served as control. European corn borer (ECB) diet prepared from the powdered diet supplied by French Agricultural Research, Inc. Diet (1-2 ml) was poured into small cups and allowed to cool to room temperature. Test solution (100 ul) was placed onto the diet surface and allowed to evaporate the solvent. Each concentration of chemical had 2 sets of 10 cups each. One late 2nd instar larva was placed in each cup and covered with lid having perforations for aeration. Cups were placed in an incubator for 7 days at 25±1° C. and 70±5% RH. After seven days, the weight of each larva was taken and any mortality was recorded. Then, the surviving larvae were transferred to fresh diet cups holding sufficient diet (5-6 ml) without chemicals and incubated at 25±1° C. and 70±5% RH until pupation. Weights of larvae were taken 14 days after transferring to fresh diet (21 days after start of treatment). Finally, the number of days until pupation was recorded.
Anion transporters caused larval death and a reduction in weight gain within 7 days exposure. The effect persisted for 2 weeks time on untreated diet, but total time to pupation was relatively unaffected.

M. incognita = assay: Initial petri dish toxicity assay, M. incognita; assay type: in vivo; conditions: Meloidogyne incognita; 100 ppm for 24 hr
Description: (§1) The stilbene nucleus is a simple chemical scaffold, and excellent gains in potency can be envisioned from appropriate chemical modification. In addition, other compounds having a similar mode of action have been described, including NPPB, IAA-94, and 9-AC (FIGS. 1-3). This Example 1 describes further toxicity studies with these compounds.

H. bacteriophora = assay: Initial petri dish toxicity assay / preliminary studies, H. bacteriophora; assay type: in vivo, Heterorhabditis bacteriophora; conditions: initial petri dish assays / preliminary studies
Description: as §1
This broad cross resistance supports a role for AT blockers in the action of these compounds.

[2] = 6.25 ppm, 21 days after feeding
[3] = 12.5 ppm, 21 days after feeding
[4] = 50 ppm, 7 days after feeding, 10 larvae treated
[5] = 50 ppm, 21 days after feeding, 10 larvae treated

O=S(=O)(O)c1cc(N=C=S)ccc1/C=C/c1ccc(N=C=S)cc1S(=O)(=O)O [DIDS, trans-4,4′-diisothiocyanatostilbene-2,2′-disulfonic acid, reference compound]
LC50 (ppm) (Caenorhabditis elegans; Day 5): 27 ppm | LC50 (ppm) (Caenorhabditis elegans; Day 7): 3 ppm | LC50 (ppm) (Drosophila melanogaster; 48 hr): 125.86 ppm | LC50 (ppm) (Drosophila melanogaster; 72 hr): 72.82 ppm | Days for pupation ([1]; 6.25 ppm): 24.6 days and 25.0 days | % wt reduction to control ([1]; 6.25 ppm, 7 days after feeding): 12.76% and 9.12% | Mean wt of survived larvae, mg ([1]; 6.25 ppm, 7 days after feeding): 41.56 (10) mg and 44.84 (10) mg | No. dead ([1]; 6.25 ppm, 7 days after feeding, 10 larvae): 0 | % wt reduction to control [1, 2]: 5.69% and 7.74% | Mean wt of survived larvae, mg [1, 2]: 156.66 (10) mg and 135.14 (10) mg | No. dead ([1]; 6.25 ppm, 21 days after feeding, 10 larvae): 0 | Days for pupation ([1]; 12.5 ppm): 25.2 days and 25.8 days | % wt reduction to control ([1]; 12.5 ppm, 7 days after feeding): 39.67% and 36.72% | Mean wt of survived larvae, mg ([1]; 12.5 ppm, 7 days after feeding): 28.74 (10) mg and 31.22 (10) mg | No. dead ([1]; 12.5 ppm, 7 days after feeding, 10 larvae): 0 | % wt reduction to control [1, 3]: 32.84% and 33.04% | Mean wt of survived larvae, mg [1, 3]: 111.56 (10) mg and 98.08 (10) mg | No. dead ([1]; 12.5 ppm, 21 days after feeding, 10 larvae): 0 | Days for pupation ([1]; 25 ppm): 27.25 days and 27.0 days | % wt reduction to control ([1]; 25 ppm, 7 days after feeding): 66.06% and 65.00% | Mean wt of survived larvae, mg ([1]; 25 ppm, 7 days after feeding): 16.17 (8) mg and 17.26 (6) mg | No. dead ([1]; 25 ppm, 7 days after feeding, 10 larvae): 2 and 4 | % wt reduction to control ([1]; 25 ppm, 21 days after feeding): 70.08% and 70.62% | Mean wt of survived larvae, mg ([1]; 25 ppm, 21 days after feeding): 49.70 (6) mg and 43.03 (6) mg | No. dead ([1]; 25 ppm, 21 days after feeding, 10 larvae): 4 | Days for pupation ([1]; 50 ppm in (Hepes)): 24.6 days | Mean wt of survived larvae, mg ([1]; 50 ppm in (Hepes), 7 days after feeding): 43.33 mg | No. dead ([1]; 50 ppm in (Hepes), 7 days after feeding, 10 larvae): 0 | Mean wt of survived larvae, mg ([1]; 50 ppm in (Hepes), 21 days after feeding): 137.36 mg | No. dead ([1]; 50 ppm in (Hepes), 21 days after feeding, 10 larvae): 0 | % wt reduction to control ([1]; 50 ppm, 7 days after feeding): 87.93% and 92.70% | Mean wt of survived larvae ([1]; 50 ppm, 7 days after feeding): 43.33 mg | Mean wt of survived larvae, mg ([1]; 50 ppm, 7 days after feeding): 5.75 (4) mg and 3.60 (1) mg | No. dead ([1]; 50 ppm, 7 days after feeding, 10 larvae): 6 and 8 | # surviving [1, 4]: 10 | No. dead [1, 4]: 0 | % wt reduction to control ([1]; 50 ppm, 21 days after feeding): 0% | Mean wt of survived larvae ([1]; 50 ppm, 21 days after feeding): 137.36 mg | Mean wt of survived larvae, mg ([1]; 50 ppm, 21 days after feeding): 0 mg | No. dead ([1]; 50 ppm, 21 days after feeding, 10 larvae): 10 | # surviving [1, 5]: 10 | No. dead [1, 5]: 0 | mortality at 6.25 ppm ([1]; 168 h, 6.25 ppm, 7 days after feeding): 0% | mortality at 12.5 ppm ([1]; 168 h, 12.5 ppm, 7 days after feeding): 0% | mortality at 25 ppm ([1]; 168 h, 25 ppm, 7 days after feeding): 20% | mortality at 50 ppm ([1]; 168 h, 50 ppm in (Hepes), 7 days after feeding): 0% | mortality at 6.25 ppm ([1]; 504 h, 6.25 ppm, 21 days after feeding): 0% | mortality at 12.5 ppm ([1]; 504 h, 12.5 ppm, 21 days after feeding): 0% | mortality at 25 ppm ([1]; 504 h, 25 ppm, 21 days after feeding): 40% | mortality at 50 ppm ([1]; 504 h, 50 ppm in (Hepes), 21 days after feeding): 0% | mortality at 100 ppm (M. incognita): 20% | paralytic/lethal effect, sensitivity (H. bacteriophora): less sensitive
